# Reference: PubChem BioAssay (NCI)
#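 48-hour exposure; five concentrations; linearly interpolated endpoints. TGI is the concentration that stops growth completely.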
# Tests used:
# Assay in all cases: NCI tumour cell line growth inhibition, 48 h
# NCI-H226 lung = system: NCI-H226 lung
# A549 NSCLC = system: A549 NSCLC
# OVCAR-5 ovarian = system: OVCAR-5 ovarian
# MCF7 breast = system: MCF7 breast
# TK-10 renal = system: TK-10 renal
# RPMI-8226 leukemia = system: RPMI-8226 leukemia
# HS 578T breast = system: HS 578T breast
# IGROV1 ovarian = system: IGROV1 ovarian
# BT-549 breast = system: BT-549 breast
# K-562 leukemia = system: K-562 leukemia
SMILES,TGI (NCI-H226 lung) [µM],TGI (A549 NSCLC) [µM],TGI (OVCAR-5 ovarian) [µM],TGI (MCF7 breast) [µM],TGI (TK-10 renal) [µM],TGI (RPMI-8226 leukemia) [µM],TGI (HS 578T breast) [µM],TGI (IGROV1 ovarian) [µM],TGI (BT-549 breast) [µM],TGI (K-562 leukemia) [µM]
COc1ccc(CCNC(=O)CCCCCO)cc1OC,> 100,> 100,> 100,> 100,> 100,> 100,> 100,> 100,> 100,> 100
CC1(C)O[C@H]2OC(CO)C(OS(C)(=O)=O)[C@H]2O1 (stereo partly drawn),–,> 100,> 100,> 100,> 100,> 100,> 100,> 100,–,–
O=C1C2=C(CCCCC2)C2CCCCC12O (stereo not drawn),> 100,> 100,–,–,> 100,> 100,–,> 100,–,> 100
COc1cc(C2c3cc4c(cc3OC3(OC)COC(=O)C23)OCO4)cc(OC)c1OC (stereo not drawn),8.16,> 37.8,> 89.2,> 56.8,> 100,–,> 100,> 100,> 100,11
Cc1ccc(S(=O)(=O)C2c3nc4ccccc4cc3-c3nc4ccccc4nc32)cc1 (stereo not drawn),–,> 100,> 100,–,> 100,> 100,–,> 100,–,> 100
CCC/C(Cl)=N\OC(=O)Nc1ccc(F)c([N+](=O)[O-])c1,55.7,66.4,44.4,75.5,32,> 100,–,28.7,22.4,> 100
O=S(=O)(O)c1cc(Nc2ccnc3ccccc23)c2c(S(=O)(=O)O)cc(S(=O)(=O)O)cc2c1,> 100,> 100,> 100,> 100,> 100,> 100,> 100,> 100,> 100,–
N#Cc1ccc(Nc2cnc3ccc(N)cc3n2)cc1,> 100,> 100,> 100,–,> 100,> 100,–,–,–,> 100
CCCCCCCC(=O)OCC(C[As](=O)(O)O)OC(=O)CCCCCCC (stereo not drawn),37.5,53.3,–,–,–,> 100,–,26.9,–,81.9
CCCCNC(=S)c1ccc(OC(=O)Nc2ccc(Cl)cc2)cc1,–,> 100,> 100,> 100,–,> 100,> 100,70.4,> 100,> 100
CC1(C)OCC(COC(=O)NCn2cc(-c3ccccc3)nn2)O1 (stereo not drawn),> 100,> 100,> 100,> 100,> 100,> 100,–,> 100,> 100,> 100
CCOC(=O)c1nc2cc(C(F)(F)F)ccc2nc1Nc1ccc(F)cc1,> 100,> 100,> 100,> 100,> 100,61.6,–,> 100,> 100,39.9
CC(=O)Nc1ccc(-c2nnc(SCC(=O)Nc3cccc([N+](=O)[O-])c3)o2)cc1,23.6,46.3,50.2,–,67.5,75.8,–,31.4,–,57.5
COC(=O)c1c(O)ccc2c1c1c(n2Cc2ccccc2OC)C(=O)c2ccccc2C1,> 100,> 100,–,> 100,> 100,72.2,> 100,> 100,> 100,> 100
Cc1cc2c(c(C(=O)NCCC(=O)N[C@@H](C)C(=O)OCc3ccccc3)c1)Oc1c(cc(C)cc1C(=O)NCCC(=O)N[C@@H](C)C(=O)OCc1ccccc1)S2,> 100,> 100,> 100,> 100,–,> 100,> 100,> 100,> 100,> 100
CCCCCCCCCCCCCCCCCCOc1ccc(/C=C/C2=[N+](CCCl)CCO2)cc1,–,> 100,> 100,> 100,> 100,> 100,> 100,> 100,> 100,> 100
CC(=O)NC(C)c1ccc(N=NN2CCCC2)cc1 (stereo not drawn),> 100,> 100,> 100,> 100,> 100,–,> 100,> 100,–,–
COc1ccc2c(c1)CC1(O)COc3cc(OC)ccc3C1O2 (stereo not drawn),> 100,> 100,> 100,> 100,> 100,> 100,–,> 100,> 100,–
COc1ccc(/C=N\NC(=O)Nc2cccc3ccccc23)cc1,83.7,> 100,> 100,> 100,43.9,> 100,61.2,> 100,> 100,–
Cc1ccc(C(=O)C2=CN=C3C(=O)N(c4ccccc4)N(C)C3(C)C2=N)cc1 (stereo not drawn),> 100,> 100,> 100,> 100,> 100,> 100,–,> 100,> 100,> 100
CC(C)(C)c1cc(/C=C/C(=O)CC(=O)/C=C/c2cc(C(C)(C)C)c(O)c(C(C)(C)C)c2)cc(C(C)(C)C)c1O,> 50,> 50,> 50,> 50,> 50,> 50,> 50,> 50,> 50,–
COC12OC3CC4(C)C(=CC3OC(OC(C)C1O)C2O)CCC1C4CCC2(C)C(c3ccc(=O)oc3)CCC12O (stereo not drawn),0.00676,0.00166,0.00327,0.00432,0.00216,0.00409,–,0.00389,0.00413,0.00718
O=c1oc2c/c(=C\c3ccccc3)c(=O)c3cccc1c3-2,75.3,> 100,> 100,–,> 100,88.1,73.2,56.7,51.6,–
CNc1ncnc2c1nnn2C,> 100,> 100,–,> 100,> 100,> 100,–,> 100,–,> 100
